One may read the inhibition as the drop in the measured response relative to a control, in per cent.

Data set [1] has as its target T1, hERG (human ether-a-go-go related gene potassium channel, KCNH2) (Homo sapiens, UniProt Q12809).
T1 construct: expressed in transfected cells; host or cells: HEK293
In words: hERG channel whole-cell patch clamp (Ion Channel Activity Measurement). It is filed as cell-based. Conditions: human, room temperature; for inhibition at 1 μM: pH 7.4, 1 μM test article; for inhibition at 10 μM: pH 7.4, 10 μM test article. As for the experimental part: HEK293 cell line expressing the human ERG (ether-a-go-go related gene) potassium channel (Potassium voltage-gated channel subfamily H member 2). cDNA strictly similar to GenBank accession number: NM_000238
(§1) Cells expressing channels were cultured in medium supplemented with 20% FBS in HAM'S F12 culture dish. Cells grew in a humidified incubator at 37° C. under 5% carbon dioxide. To passage cells, remove poor medium and rinse the cells once with PBS 1X. […] Place plate on a 37° C. warming incubator 5 min. As soon as cells are detached, add 5 ml of 37° C. complete medium. Draw cell suspension into a sterile pipet and homogenize cells gently to dissociate cells aggregates. Amplify or maintain the cells by seeding 2.5*105 cells in a 6 cm dish (final volume: 5 ml). To maintain electrophysiological performances, cell density must not exceed 80%. On the day before patch clamp experiment, 3*103 cells were seeded on coverslips in the 24-well plate and incubated at 37° C. in 5% carbon dioxide.
(§2) Glass pipette (BF150-86-10, Sutter Instruments) was made by puller (P97, Sutter Instruments). The glass pipette was manipulated using Micro-manipulator (Carm-C-S, MCI Instruments) under the microscope (AE31EF-INV, Motic). After touching the cell, a slight suction was applied to achieve high seal (GΩ). Fast capacitance (in pF) compensation was made after high seal was achieved; after achieving high seal, the membrane was broken, Cell capacitance (in pF) compensation was made from whole-cell capacitance compensation after the whole cell mode was achieved. No leak subtraction was made.
(§3) Cell was incubated with the test article for 5 minutes, or until the current reached a steady-state level. Multiple concentrations of test article were tested. The test articles were applied gradually from low to high concentration. The test and control solutions were flown into a recording chamber mounted on the stage of an inverted microscope via a gravity-fed solution delivery system. During the experiment, solutions were withdrawn from the recording chamber by vacuum aspiration. Each concentration was tested at multiple times. Each cell acted as its own control. All tests were performed at room temperature (23-25° C.).
hERG current was recorded under a holding potential at −80 mV and then depolarized to 30 mV for 2.5 seconds to activate the hERG channel. The peak tail currents were induced by a repolarizing pulse to −50 mV for 4 seconds. This voltage-clamp pulse protocol was performed continuously during the experiment. An interpulse interval of 10 seconds allowed recovery from inactivation. An interpulse of −50 mV test for 0.5 second before 30 mV depolarized step was included for leak current correction
A general note: hERG is a cardiac potassium channel; its block is linked to QT prolongation.

Data set [2] addresses T2, CaV1.2 (L-type voltage-dependent calcium channel; CACNA1C, CACNB2, CACNA2D1) (Homo sapiens, UniProt Q13936).
T2 construct: expressed in transfected cells; host or cells: CHO
The experiment in a line: CaV1.2 channel whole-cell patch clamp (Ion Channel Activity Measurement). It counts as cell-based. To be noted: human, room temperature; for inhibition at 5 min, 1 μM: pH 7.4, 1 μM test article; for inhibition at 5 min, 10 μM: pH 7.4, 10 μM test article, read-out: CaV 1.2 10 μM (ion-channel inhibition). As for the experimental part:
• CHO cell line stably expressing human calcium channel, voltage-dependent, L type, • CACNA1C: cDNA strictly similar to GenBank accession number: NM_000719 • CACNB2: cDNA strictly similar to GenBank accession number: NM_000724 • CACNA2D1: cDNA strictly similar to GenBank accession number: NM_000722 Iks Channel Cell Line:
as §1
Bath solution: 140 mM TEA-C1, 2 mM MgCl2·6H2O, 10 mM CaCl2, 10 mM HEPES, 5 mM D-glucose, pH=7.4 with TEA-OH. Pipette solution: 120 mM CsCl, 1 mM MgCl2·6H2O, 10 mM HEPES, 10 mM EGTA, 0.3 mM Na2-GTP, 4 mM Mg-ATP, pH=7.2 with CsOH.
as §2, §3
Cav1.2 current was recorded under a holding potential at −80 mV and then depolarized to +10 mV for 0.3 seconds. This protocol was repeated at 20 s intervals to observe the effect of test articles on the peak of Cav1.2 current.

The mark [3] stands for this setting: HEK293 cells expressing the human ERG potassium channel.

Structures are written as SMILES. Structures can show the parent of a compound that is named as a salt.

T1 sequence (Q12809 whole entry): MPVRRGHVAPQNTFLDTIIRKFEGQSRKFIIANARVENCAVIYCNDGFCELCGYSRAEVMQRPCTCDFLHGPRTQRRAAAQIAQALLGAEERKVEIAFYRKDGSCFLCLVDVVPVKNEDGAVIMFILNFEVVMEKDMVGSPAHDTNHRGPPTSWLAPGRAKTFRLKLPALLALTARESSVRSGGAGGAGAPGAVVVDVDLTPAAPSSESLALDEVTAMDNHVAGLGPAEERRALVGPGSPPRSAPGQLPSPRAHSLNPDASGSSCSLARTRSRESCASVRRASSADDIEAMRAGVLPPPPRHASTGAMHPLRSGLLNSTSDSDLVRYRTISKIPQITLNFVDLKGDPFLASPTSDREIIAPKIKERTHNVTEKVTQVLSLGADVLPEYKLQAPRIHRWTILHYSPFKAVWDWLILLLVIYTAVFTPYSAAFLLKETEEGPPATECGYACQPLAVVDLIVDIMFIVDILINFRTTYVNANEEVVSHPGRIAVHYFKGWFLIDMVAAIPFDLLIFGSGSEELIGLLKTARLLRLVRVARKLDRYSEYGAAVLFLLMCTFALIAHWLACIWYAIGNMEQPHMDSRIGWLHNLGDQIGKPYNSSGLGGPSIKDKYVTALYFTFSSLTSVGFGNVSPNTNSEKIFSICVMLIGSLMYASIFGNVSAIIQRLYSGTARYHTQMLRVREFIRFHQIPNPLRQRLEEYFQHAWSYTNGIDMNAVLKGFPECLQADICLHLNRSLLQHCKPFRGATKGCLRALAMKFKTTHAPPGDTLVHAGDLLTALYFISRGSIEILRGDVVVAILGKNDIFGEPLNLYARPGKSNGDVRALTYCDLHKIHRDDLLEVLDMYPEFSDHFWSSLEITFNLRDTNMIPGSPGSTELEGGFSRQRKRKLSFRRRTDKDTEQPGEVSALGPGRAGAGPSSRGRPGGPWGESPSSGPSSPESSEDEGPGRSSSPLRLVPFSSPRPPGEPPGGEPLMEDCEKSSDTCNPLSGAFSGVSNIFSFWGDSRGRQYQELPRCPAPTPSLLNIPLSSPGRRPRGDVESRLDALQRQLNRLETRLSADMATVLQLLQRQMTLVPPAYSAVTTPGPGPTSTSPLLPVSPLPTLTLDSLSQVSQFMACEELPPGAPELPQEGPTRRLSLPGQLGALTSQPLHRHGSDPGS
T2 sequence (Q13936 1-2138 isoform Q13936-12): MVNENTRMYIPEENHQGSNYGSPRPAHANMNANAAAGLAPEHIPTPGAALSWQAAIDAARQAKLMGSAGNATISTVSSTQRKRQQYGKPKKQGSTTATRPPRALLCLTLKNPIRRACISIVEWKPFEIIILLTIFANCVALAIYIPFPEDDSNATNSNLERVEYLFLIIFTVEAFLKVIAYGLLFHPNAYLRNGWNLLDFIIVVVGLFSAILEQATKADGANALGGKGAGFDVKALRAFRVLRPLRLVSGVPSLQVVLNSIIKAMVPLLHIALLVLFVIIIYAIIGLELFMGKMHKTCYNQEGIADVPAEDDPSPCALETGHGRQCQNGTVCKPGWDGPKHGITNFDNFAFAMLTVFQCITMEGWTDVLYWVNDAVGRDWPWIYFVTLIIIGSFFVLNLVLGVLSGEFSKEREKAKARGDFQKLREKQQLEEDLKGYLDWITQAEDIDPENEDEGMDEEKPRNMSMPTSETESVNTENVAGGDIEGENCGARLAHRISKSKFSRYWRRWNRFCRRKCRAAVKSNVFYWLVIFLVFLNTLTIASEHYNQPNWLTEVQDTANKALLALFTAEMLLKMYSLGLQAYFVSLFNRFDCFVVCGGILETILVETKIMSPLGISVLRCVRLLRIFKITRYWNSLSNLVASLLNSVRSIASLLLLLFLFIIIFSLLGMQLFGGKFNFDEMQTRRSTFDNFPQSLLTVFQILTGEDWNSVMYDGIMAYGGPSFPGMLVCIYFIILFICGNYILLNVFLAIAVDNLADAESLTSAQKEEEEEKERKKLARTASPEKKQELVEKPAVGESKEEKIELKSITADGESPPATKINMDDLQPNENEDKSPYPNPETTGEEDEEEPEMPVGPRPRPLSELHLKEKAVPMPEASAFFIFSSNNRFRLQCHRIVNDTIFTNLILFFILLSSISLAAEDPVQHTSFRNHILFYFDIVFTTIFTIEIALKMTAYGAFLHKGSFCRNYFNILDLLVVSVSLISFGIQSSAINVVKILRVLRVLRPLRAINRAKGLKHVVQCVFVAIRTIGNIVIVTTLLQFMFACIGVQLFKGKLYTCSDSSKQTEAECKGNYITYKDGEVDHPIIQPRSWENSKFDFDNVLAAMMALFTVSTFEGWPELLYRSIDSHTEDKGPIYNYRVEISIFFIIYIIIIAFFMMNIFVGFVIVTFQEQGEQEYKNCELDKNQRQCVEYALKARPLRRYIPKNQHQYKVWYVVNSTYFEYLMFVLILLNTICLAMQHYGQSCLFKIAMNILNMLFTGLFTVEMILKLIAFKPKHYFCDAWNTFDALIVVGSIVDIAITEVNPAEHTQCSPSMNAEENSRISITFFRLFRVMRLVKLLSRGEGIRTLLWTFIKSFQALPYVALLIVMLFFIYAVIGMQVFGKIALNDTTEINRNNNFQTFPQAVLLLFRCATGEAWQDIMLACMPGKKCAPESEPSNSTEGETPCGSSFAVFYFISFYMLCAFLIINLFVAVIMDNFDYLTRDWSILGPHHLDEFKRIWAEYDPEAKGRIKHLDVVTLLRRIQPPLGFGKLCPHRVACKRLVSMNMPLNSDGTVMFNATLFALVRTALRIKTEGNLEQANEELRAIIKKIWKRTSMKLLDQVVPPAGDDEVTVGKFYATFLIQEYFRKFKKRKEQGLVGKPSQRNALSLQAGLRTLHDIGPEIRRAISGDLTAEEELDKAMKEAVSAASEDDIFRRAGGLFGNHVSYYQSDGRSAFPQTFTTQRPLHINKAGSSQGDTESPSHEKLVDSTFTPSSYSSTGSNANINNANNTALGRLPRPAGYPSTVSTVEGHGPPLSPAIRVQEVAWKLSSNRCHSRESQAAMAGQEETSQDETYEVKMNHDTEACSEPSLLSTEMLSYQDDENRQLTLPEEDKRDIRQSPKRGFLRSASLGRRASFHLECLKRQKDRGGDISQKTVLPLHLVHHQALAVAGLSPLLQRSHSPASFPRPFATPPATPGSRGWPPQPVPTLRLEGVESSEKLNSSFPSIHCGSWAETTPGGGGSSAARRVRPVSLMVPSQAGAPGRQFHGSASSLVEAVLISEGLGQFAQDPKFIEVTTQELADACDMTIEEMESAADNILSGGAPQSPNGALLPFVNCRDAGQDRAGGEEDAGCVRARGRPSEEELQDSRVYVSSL
T2 sequence (Q08289 1-605 isoform Q08289-2 partner): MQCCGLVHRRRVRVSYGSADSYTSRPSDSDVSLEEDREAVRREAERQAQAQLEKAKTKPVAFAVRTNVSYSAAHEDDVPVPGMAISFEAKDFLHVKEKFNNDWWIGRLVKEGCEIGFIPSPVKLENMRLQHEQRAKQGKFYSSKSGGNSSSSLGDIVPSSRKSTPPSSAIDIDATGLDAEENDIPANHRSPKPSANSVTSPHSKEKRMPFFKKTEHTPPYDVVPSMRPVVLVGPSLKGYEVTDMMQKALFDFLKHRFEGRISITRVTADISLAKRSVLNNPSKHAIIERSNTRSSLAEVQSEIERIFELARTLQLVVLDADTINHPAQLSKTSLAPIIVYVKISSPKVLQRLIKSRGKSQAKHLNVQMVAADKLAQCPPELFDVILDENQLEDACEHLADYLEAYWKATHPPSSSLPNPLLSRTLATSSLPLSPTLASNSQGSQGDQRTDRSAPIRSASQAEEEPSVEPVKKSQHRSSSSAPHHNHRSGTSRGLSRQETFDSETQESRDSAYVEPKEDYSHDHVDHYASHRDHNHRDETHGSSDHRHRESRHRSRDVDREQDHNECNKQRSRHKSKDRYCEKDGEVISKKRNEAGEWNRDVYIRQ
T2 sequence (P54289 25-1091 isoform P54289-2 partner limits assumed): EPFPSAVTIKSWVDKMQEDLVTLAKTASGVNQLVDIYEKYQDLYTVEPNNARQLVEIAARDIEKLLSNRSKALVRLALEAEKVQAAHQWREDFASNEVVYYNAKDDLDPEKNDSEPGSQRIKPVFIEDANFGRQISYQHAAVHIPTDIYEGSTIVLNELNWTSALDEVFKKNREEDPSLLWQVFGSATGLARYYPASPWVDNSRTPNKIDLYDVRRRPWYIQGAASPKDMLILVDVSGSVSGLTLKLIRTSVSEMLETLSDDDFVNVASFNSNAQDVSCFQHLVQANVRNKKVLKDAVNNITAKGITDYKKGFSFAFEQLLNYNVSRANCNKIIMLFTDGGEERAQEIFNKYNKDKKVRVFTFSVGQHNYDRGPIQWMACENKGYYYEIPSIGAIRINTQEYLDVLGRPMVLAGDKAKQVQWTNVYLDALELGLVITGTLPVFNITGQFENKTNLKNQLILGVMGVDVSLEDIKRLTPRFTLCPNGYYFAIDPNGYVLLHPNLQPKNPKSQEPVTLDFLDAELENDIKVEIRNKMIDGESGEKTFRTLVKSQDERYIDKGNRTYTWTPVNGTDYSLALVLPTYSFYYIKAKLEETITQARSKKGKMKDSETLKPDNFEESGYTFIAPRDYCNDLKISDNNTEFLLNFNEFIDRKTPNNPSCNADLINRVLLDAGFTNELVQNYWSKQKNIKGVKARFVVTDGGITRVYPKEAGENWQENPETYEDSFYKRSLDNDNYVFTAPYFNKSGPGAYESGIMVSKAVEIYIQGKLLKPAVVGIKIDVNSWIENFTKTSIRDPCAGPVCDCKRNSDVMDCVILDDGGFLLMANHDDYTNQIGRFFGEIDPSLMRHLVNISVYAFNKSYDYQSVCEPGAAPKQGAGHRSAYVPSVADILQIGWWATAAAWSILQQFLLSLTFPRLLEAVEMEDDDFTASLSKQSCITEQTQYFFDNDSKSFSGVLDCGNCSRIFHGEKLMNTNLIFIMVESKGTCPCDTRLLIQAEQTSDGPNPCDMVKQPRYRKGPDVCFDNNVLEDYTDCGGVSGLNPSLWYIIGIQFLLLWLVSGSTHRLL
T2 sequence (P54289 957-1103 partner limits assumed): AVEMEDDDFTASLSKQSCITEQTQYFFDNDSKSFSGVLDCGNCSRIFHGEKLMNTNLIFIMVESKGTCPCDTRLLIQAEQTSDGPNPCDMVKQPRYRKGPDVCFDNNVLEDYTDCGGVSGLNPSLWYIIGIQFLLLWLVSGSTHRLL

In the case of `Oc1ccc2ccccc2c1Cn1nc(-c2ccccc2)cc1O` [Compound A059], in data set [1], the inhibition at 1 μM is < 25% and the inhibition at 10 μM was < 25%. Also, in data set [2], the inhibition at 5 min, 1 μM is < 25% and the inhibition at 5 min, 10 μM was < 25%.
In the case of `CC(=O)N(c1c(O)ccc2ccccc12)c1c(O)ccc2ccccc12` [Compound A075, N,N-bis(2-hydroxynaphthalen-1-yl)acetamide], in data set [1] (setting [3]), the inhibition at 1 μM is < 25% and the inhibition at 10 μM is < 25%. In data set [2], the inhibition at 5 min, 1 μM was < 25% and the inhibition at 5 min, 10 μM is < 25%.
With `CCOCOc1cccc2c1C(=O)CCC2` [Compound A076, 8-(ethoxymethoxy)-3,4-dihydronaphthalen-1(2H)-one], in data set [1] (setting [3]), the inhibition at 1 μM was < 25% and the inhibition at 10 μM fell in the range of 50 to 75%. For the same molecule, in data set [2], the inhibition at 5 min, 1 μM is < 25% and the inhibition at 5 min, 10 μM lay in the range of 25 to 50%.
With `Oc1cccc2c1C(c1c(O)ccc3ccccc13)CCC2` (centres unmarked) [Compound A077, 1′,2′,3′,4′-tetrahydro-[1,1′-binaphthalene]-2,8′-diol], in data set [1] (setting [3]), the inhibition at 1 μM is < 25% and the inhibition at 10 μM was 50 to 75%. Besides, in data set [2], the inhibition at 5 min, 1 μM was < 25% and the inhibition at 5 min, 10 μM was < 25%.
Regarding `Oc1cccc2c1C(c1c(O)ccc3c1CCCC3)CCC2` (centres unmarked) [Compound A077-2, 1′,2′,3′,4′,5,6,7,8-octahydro-[1,1′-binaphthalene]-2,8′-diol], in data set [1] (setting [3]), the inhibition at 1 μM was < 25% and the inhibition at 10 μM was in the range of 50 to 75%. In data set [2], the inhibition at 5 min, 1 μM was < 25% and the inhibition at 5 min, 10 μM is < 25%.
Take `Oc1cccc2c1C(c1c(O)ccc3ccccc13)=CC2` [Compound A078, 1-(4-hydroxy-1H-inden-3-yl)naphthalen-2-ol]: in data set [1] (setting [3]), the inhibition at 1 μM was < 25% and the inhibition at 10 μM was < 25%. In addition, in data set [2], the inhibition at 5 min, 1 μM is < 25% and the inhibition at 5 min, 10 μM was < 25%.
For the molecule `Oc1cccc2c1C(c1c(O)ccc3ccccc13)CC2` (centres unmarked) [Compound A079, 1-(7-hydroxy-2,3-dihydro-1H-inden-1-yl)naphthalen-2-ol], in data set [1] (setting [3]), the inhibition at 1 μM is < 25% and the inhibition at 10 μM lay in the range of 75 to 100%. In data set [2], the inhibition at 5 min, 1 μM is < 25% and the inhibition at 5 min, 10 μM fell in the range of 50 to 75%.
Take `COc1ccc(COCc2ccc3ccccc3c2C(O)c2c(COCc3ccc(OC)cc3)ccc3ccccc23)cc1` [Compound A080, bis(2-(((4-methoxybenzyl)oxy)methyl)naphthalen-1-yl)methanol]: in data set [1] (setting [3]), the inhibition at 1 μM was < 25% and the inhibition at 10 μM was < 25%. In data set [2], the inhibition at 5 min, 1 μM is < 25% and the inhibition at 5 min, 10 μM lay in the range of 25 to 50%.
For `CC(C)c1cc2ccccc2c(Cc2c(O)c(C(C)C)cc3ccccc23)c1O` [Compound A081, 1,1′-methylenebis(3-isopropylnaphthalen-2-ol)], in data set [1] (setting [3]), the inhibition at 1 μM was < 25% and the inhibition at 10 μM is 50 to 75%. Moreover, in data set [2], the inhibition at 5 min, 1 μM was < 25% and the inhibition at 5 min, 10 μM was in the range of 25 to 50%.
In data set [1] (setting [3]), `CCN(CC)CCOc1ccc2ccccc2c1Cc1c(O)c(C)cc2ccccc12` [Compound A098, 1-((2-(2-(diethylamino)ethoxy)naphthalen-1-yl)methyl)-3-methylnaphthalen-2-ol] returned an inhibition at 1 μM of 25 to 50% and an inhibition at 10 μM of 75 to 100%. In addition, in data set [2], the inhibition at 5 min, 1 μM is < 25% and the inhibition at 5 min, 10 μM is < 25%.
As for `O=C(O)c1ccc2ccccc2c1Cc1c(C(=O)O)ccc2ccccc12` [Compound A100, 1,1′-methylenebis(2-naphthoic acid)], in data set [1] (setting [3]), the inhibition at 1 μM is < 25% and the inhibition at 10 μM is < 25%. Besides, in data set [2], the inhibition at 5 min, 1 μM was < 25% and the inhibition at 5 min, 10 μM is < 25%.
Consider `NC(=O)c1ccc2ccccc2c1Cc1c(C(N)=O)ccc2ccccc12` [Compound A101, 1,1′-methylenebis(2-naphthamide)], for which, in data set [1] (setting [3]), the inhibition at 1 μM is < 25% and the inhibition at 10 μM is 50 to 75%. In data set [2], the inhibition at 5 min, 1 μM was < 25% and the inhibition at 5 min, 10 μM is < 25%.
Consider `CCN(CC)CCOc1c(C(C)C)cc2ccccc2c1Cc1c(O)c(C(C)C)cc2ccccc12` [Compound A102, 1-((2-(2-(diethylamino)ethoxy)-3-isopropylnaphthalen-1-yl)methyl)-3-isopropylnaphthalen-2-ol hydrochloride Salt], for which, in data set [1] (setting [3]), the inhibition at 1 μM lay within 50 to 75% and the inhibition at 10 μM lay in the range of 75 to 100%. Besides, in data set [2], the inhibition at 5 min, 1 μM is < 25% and the inhibition at 5 min, 10 μM lay within 75 to 100%.
In the case of `O=C(O)c1ccc2ccccc2c1Cc1c(O)ccc2ccccc12` [Compound A106, 1-((2-hydroxynaphthalen-1-yl)methyl)-2-naphthoic acid], in data set [1] (setting [3]), the inhibition at 1 μM was < 25% and the inhibition at 10 μM was < 25%. Moreover, in data set [2], the inhibition at 5 min, 1 μM is < 25% and the inhibition at 5 min, 10 μM was < 25%.
With `CCN(CC)CCOc1c(C)cc2ccccc2c1Cc1c(O)c(C)cc2ccccc12` [Compound A108, 1-((2-(2-(diethylamino)ethoxy)-3-methylnaphthalen-1-yl)methyl)-3-methylnaphthalen-2-ol], in data set [1] (setting [3]), the inhibition at 1 μM is < 25% and the inhibition at 10 μM was < 25%. For the same molecule, in data set [2], the inhibition at 5 min, 1 μM was < 25% and the inhibition at 5 min, 10 μM was 25 to 50%.
For `Oc1ccc2ccccc2c1Cc1c(O)ccc2ccncc12` [Compound A109, 8-((2-hydroxynaphthalen-1-yl)methyl)isoquinolin-7-ol], in data set [1] (setting [3]), the inhibition at 1 μM is < 25% and the inhibition at 10 μM was 75 to 100%. Besides, in data set [2], the inhibition at 5 min, 1 μM is 25 to 50% and the inhibition at 5 min, 10 μM was 50 to 75%.
In data set [1] (setting [3]), `CCN(CC)CCOc1ccc2ccccc2c1N(C)c1c(OC)ccc2ccccc12` [Compound A111-I-2, 2-(2-(diethylamino)ethoxy)-N-(2-methoxynaphthalen-1-yl)-N-methylnaphthalen-1-amine 2,2,2-trifluoroacetate] displayed an inhibition at 1 μM of 50 to 75% and an inhibition at 10 μM of 75 to 100%. Moreover, in data set [2], the inhibition at 5 min, 1 μM was < 25% and the inhibition at 5 min, 10 μM lay in the range of 25 to 50%.
Take `O=C(O)c1ccc2c(Cc3c(O)ccc4ccccc34)c(O)ccc2c1` [Compound A114, 6-hydroxy-5-((2-hydroxynaphthalen-1-yl)methyl)-2-naphthoic acid]: in data set [1] (setting [3]), the inhibition at 1 μM is < 25% and the inhibition at 10 μM is 50 to 75%. Also, in data set [2], the inhibition at 5 min, 1 μM was < 25% and the inhibition at 5 min, 10 μM is < 25%.
Consider `Oc1cccc(-c2cccnc2)c1Cc1c(O)cccc1-c1cccnc1` [Compound A117, 2,2′-methylenebis(3-(pyridin-3-yl)phenol)], for which, in data set [1] (setting [3]), the inhibition at 1 μM was < 25% and the inhibition at 10 μM was < 25%. In addition, in data set [2], the inhibition at 5 min, 1 μM is < 25% and the inhibition at 5 min, 10 μM lay in the range of 25 to 50%.
On to `COc1cccc(-c2cccnc2)c1Cc1c(O)cccc1-c1cccnc1` [Compound A117-I-1, 2-(2-methoxy-6-(pyridin-3-yl)benzyl)-3-(pyridin-3-yl)phenol], for which, in data set [1] (setting [3]), the inhibition at 1 μM is < 25% and the inhibition at 10 μM was 25 to 50%. In data set [2], the inhibition at 5 min, 1 μM was < 25% and the inhibition at 5 min, 10 μM was < 25%.
